Laboratory results as given in patent publication US6555529B1, “Remedies for intramedullary diseases” (Toray Industries, Inc., priority 1997, dated 2003).
Marks after values point to notes of the source that are not given here.

How the values were obtained:
[1] = system: B-cell-type acute lymphoblastic leukaemia cell strain CCRF-SB; assay: Suppression of CCRF-SB cell proliferation (MTT assay); type: cell-based; design: unit of the concentration uncertain; settings: 120 hours culture, mean ± SE
Experimental: (§1) Acute promyelocytic leukaemia cell strain KG-1, T-cell type acute lymphoblastic leukaemia cell strain RPMI-8402, B-cell-type acute lymphoblastic leukaemia cell strain CCRF-SB, chronic myelocytic leukaemia cell strain K562 and myeloblastoma cell strain ML-2 were prepared at concentrations of 2×10^4 or 4×10^4 cells per ml of culture medium. In each case, 0.05 ml quantities were added per well of a 96 well culture plate and culturing carried out at a carbon dioxide concentration of 5% for 24 hours at 37° C. Furthermore, 0.05 ml quantities of culture medium to which Compound 1 had been added were added to the aforesaid culture plate, and culturing carried out under the same conditions for 120 hours. The number of cells when the culturing was completed was calculated by the MTT calorimetric assay and the percentage suppression of tumour cell proliferation in terms of a control group to which no compound had been added was determined.
(§2) As well as Compound 1, there were used as test compounds 1-hydroxyethane-1,1-bisphosphonic acid disodium salt (Compound 6) and (4-chlorophenylthio)methane-1,1-bisphosphonic acid disodium salt (Compound 7). The results are shown in Table 2 as mean values±standard errors.
(§3) Using Dunett multiple comparison method (parametric), the results were assigned the symbol * when significant at a level of significance of p<0.05, and the symbol *** when significant at a level of significance of p<0.001, compared to the control group.

[2] = system: acute promyelocytic leukaemia cell strain KG-1; assay: Suppression of KG-1 cell proliferation (MTT assay); type: cell-based; design: unit of the concentration uncertain; settings: 120 hours culture, mean ± SE
Experimental: as §1, §2, §3

tumour cells = assay: Suppression of leukaemia cell and myeloma cell proliferation (summary over all cell strains); type: cell-based; settings: summary of Table 2
Experimental: as §1
As well as Compound 1, there were used as test compounds 1-hydroxyethane-1,1-bisphosphonic acid disodium salt (Compound 6) and (4-chlorophenylthio)methane-1,1-bisphosphonic acid disodium salt (Compound 7). The results are shown in Table 2 as mean values±standard errors. […]

[3] = system: T-cell type acute lymphoblastic leukaemia cell strain RPMI-8402; assay: Suppression of RPMI-8402 cell proliferation (MTT assay); type: cell-based; settings: 120 hours culture, mean ± SE
Experimental: as §1, §2, §3

[4] = system: myeloblastoma cell strain ML-2; assay: Suppression of ML-2 cell proliferation (MTT assay); type: cell-based; design: unit of the concentration uncertain; settings: 120 hours culture, mean ± SE
Experimental: as §1, §2, §3

[5] = system: chronic myelocytic leukaemia cell strain K562; assay: Suppression of K562 cell proliferation (MTT assay); type: cell-based; design: unit of the concentration uncertain; settings: 120 hours culture, mean ± SE
Experimental: as §1, §2, §3

[6] = system: osteomyelitis accompanying adjuvant arthritis (neutrophil infiltration into joints); assay: Suppression of osteomyelitis accompanying rat adjuvant arthritis; type: in vivo; settings: for Osteomyelitis score for the intertarsal and tarsometatarsal joints / Osteomyelitis score for the talocrural joint region: Lewis rats, scored day 22, grades 0-3, mean ± SE; for osteomyelitis suppressing effect (in words): rat adjuvant arthritis, summary of Table 1
Experimental: 0.1 mg of inactivated dried Mycobacterium butyricum was suspended in 0.1 ml of liquid paraffin, and this was injected into the left hind foot pad of 8-week old female Lewis rats. […] As a control group, the subcutaneous administration of sterile distilled water was carried out. One day after the completion of the administration (day 22) the rats were sacrificed, the skin and muscle removed from the right hind limb and, following decalcification, pathological specimens were prepared. […] Furthermore, Diclofenac (Compound 4) and Indomethacin (Compound 5) were used as existing anti-inflammatory drugs. The results obtained are shown in Table 1 as mean values±standard errors. Using the […] multiple comparison method (parametric), the results were assigned the symbol * when significant at a level of significance of p<0.05, and the symbol ** when significant at a level of significance of p<0.01, compared to the control group in which only sterile distilled water was used.

CC(O)(P(=O)([O-])[O-])P(=O)(O)O.[Na+].[Na+] [Compound 6, 1-hydroxyethane-1,1-bisphosphonic acid disodium salt]
Percentage suppression of CCRF-SB cell proliferation ([1]; 1 (unit uncertain)): 42.1 ± 0.9*** %
Percentage suppression of CCRF-SB cell proliferation ([1]; 10 (unit uncertain)): 2.2 ± 0.8%
Percentage suppression of CCRF-SB cell proliferation ([1]; 100 (unit uncertain)): 0.4 ± 1.2%
Percentage suppression of KG-1 cell proliferation ([2]; 1 (unit uncertain)): 40.7 ± 1.7*** %
Percentage suppression of KG-1 cell proliferation ([2]; 10 (unit uncertain)): 1.6 ± 2.1%
Percentage suppression of KG-1 cell proliferation ([2]; 100 (unit uncertain)): 2.9 ± 2.4%
proliferation of tumour cells (in words) (tumour cells): suppressed
Percentage suppression of RPMI8402 cell proliferation ([3]; 1 mM): 28.2 ± 2.0*** %
Percentage suppression of RPMI8402 cell proliferation ([3]; 10 mM): −3.4 ± 1.3%
Percentage suppression of RPMI8402 cell proliferation ([3]; 100 mM): 2.9 ± 1.5%
Percentage suppression of ML-2 cell proliferation ([4]; 1 (unit uncertain)): 147.2 ± 20.4*** %
Percentage suppression of ML-2 cell proliferation ([4]; 10 (unit uncertain)): −20.6 ± 17.2%
Percentage suppression of ML-2 cell proliferation ([4]; 100 (unit uncertain)): 16.0 ± 17.2%
Percentage suppression of K562 cell proliferation ([5]; 1 (unit uncertain)): 44.4 ± 1.3*** %
Percentage suppression of K562 cell proliferation ([5]; 10 (unit uncertain)): −2.5 ± 0.3%
Percentage suppression of K562 cell proliferation ([5]; 100 (unit uncertain)): 3.2 ± 0.6%

COc1ccc2c(c1)c(CC(=O)O)c(C)n2C(=O)c1ccc(Cl)cc1 [Compound 5, Indomethacin, reference compound]
Osteomyelitis score for the intertarsal and tarsometatarsal joints ([6]; 0.1 mg/kg, Table 1-5): 2.5 ± 0.2
Osteomyelitis score for the talocrural joint region ([6]; 0.1 mg/kg, Table 1-5): 1.8 ± 0.4
osteomyelitis suppressing effect (in words) [6]: weak

O=C(O)Cc1ccccc1Nc1c(Cl)cccc1Cl [Compound 4, Diclofenac, reference compound]
Osteomyelitis score for the intertarsal and tarsometatarsal joints ([6]; 0.1 mg/kg, Table 1-4): 1.8 ± 0.2
Osteomyelitis score for the talocrural joint region ([6]; 0.1 mg/kg, Table 1-4): 1.2 ± 0.3
osteomyelitis suppressing effect (in words) [6]: weak

NCCCC(O)(P(=O)(O)O)P(=O)(O)O [Compound 2, 4-amino-1-hydroxybutane-1,1-bisphosphonic acid]
Osteomyelitis score for the intertarsal and tarsometatarsal joints ([6]; 0.31 mg/kg, Table 1-2): 0.2 ± 0.17**
Osteomyelitis score for the talocrural joint region ([6]; 0.31 mg/kg, Table 1-2): 0.0 ± 0.0**
osteomyelitis suppressing effect (in words) [6]: suppressed

O=P(O)(O)C(O)(Cc1cccnc1)P(=O)(O)O [Compound 3, 2-(3-pyridyl)-1-hydroxyethane-1,1-bisphosphonic acid]
Osteomyelitis score for the intertarsal and tarsometatarsal joints ([6]; 0.31 mg/kg, Table 1-3): 0.0 ± 0.0**
Osteomyelitis score for the talocrural joint region ([6]; 0.31 mg/kg, Table 1-3): 0.0 ± 0.0**
osteomyelitis suppressing effect (in words) [6]: suppressed

O=P([O-])([O-])C(Sc1ccc(Cl)cc1)P(=O)(O)O.[Na+].[Na+] [Compound 7, (4-chlorophenylthio)methane-1,1-bisphosphonic acid disodium salt]
Percentage suppression of CCRF-SB cell proliferation ([1]; 1 (unit uncertain)): 61.3 ± 1.1*** %
Percentage suppression of CCRF-SB cell proliferation ([1]; 10 (unit uncertain)): 0.1 ± 1.9%
Percentage suppression of CCRF-SB cell proliferation ([1]; 100 (unit uncertain)): 3.5 ± 2.2%
Percentage suppression of KG-1 cell proliferation ([2]; 1 (unit uncertain)): 97.1 ± 0.6*** %
Percentage suppression of KG-1 cell proliferation ([2]; 10 (unit uncertain)): −1.1 ± 1.1%
Percentage suppression of KG-1 cell proliferation ([2]; 100 (unit uncertain)): 2.2 ± 1.6%
proliferation of tumour cells (in words) (tumour cells): suppressed
Percentage suppression of RPMI8402 cell proliferation ([3]; 1 mM): 87.2 ± 0.6*** %
Percentage suppression of RPMI8402 cell proliferation ([3]; 10 mM): −2.5 ± 2.0%
Percentage suppression of RPMI8402 cell proliferation ([3]; 100 mM): 7.4 ± 6.3%
Percentage suppression of ML-2 cell proliferation ([4]; 1 (unit uncertain)): 130.4 ± 11.2*** %
Percentage suppression of ML-2 cell proliferation ([4]; 10 (unit uncertain)): 7.3 ± 7.3%
Percentage suppression of ML-2 cell proliferation ([4]; 100 (unit uncertain)): 42.8 ± 10.1* %
Percentage suppression of K562 cell proliferation ([5]; 1 (unit uncertain)): 97.8 ± 0.3*** %
Percentage suppression of K562 cell proliferation ([5]; 10 (unit uncertain)): −1.0 ± 1.3%
Percentage suppression of K562 cell proliferation ([5]; 100 (unit uncertain)): −3.1 ± 0.5%
